Data as given in US6465482B2, “Arylpiperazinyl-cyclohexyl indole derivatives for the treatment of depression” (Wyeth, priority 1999, dated 2002).
Counter-ions that a name gives are not always drawn.

melting point | Compound
230 °C | Cn1cc([C@H]2CC[C@@H](N3CCN(c4cc(C(=O)O)cc5cccnc45)CC3)CC2)c2cc(C#N)ccc21 (as salt: oxalate) [Example 73, 8-[4-[(cis)-4-(5-Cyano-1-methyl-1H-indole-3-yl)cyclohexyl]-1-piperazinyl]-6-quinolinecarboxylic Acid]
215 to 216 °C | COc1cc(N2CCN([C@H]3CC[C@H](c4cn(C)c5ccc(C#N)cc54)CC3)CC2)c2ncccc2c1Cl [Example 52f, (trans)-3-{4-[4-(5-Chloro-6-methoxyquinolin-8-yl)piperazin-1-yl]cyclohexyl}-1-methyl-1H-indole-5-carbonitrile]
319 to 320 °C (dec.) | Fc1ccc2c(c1)[nH]cc2[C@H]1CC[C@H](N2CCN(c3cccc4[nH]ccc34)CC2)CC1 (as salt: HCl) [Example 4b, 6-Fluoro-3-[trans-4-[4-(1H-indol-4-yl)-1-piperazinyl]cyclohexyl]-1H-indole]
239 to 243 °C | COc1cc(N2CCN([C@H]3CC[C@@H](c4c[nH]c5cc(F)ccc54)CC3)CC2)c2ncccc2c1 [Example 80, 8-{cis-4-[4-(6-Fluoro-1H-indol-3-yl)cyclohexyl]-1-piperazinyl}-6-methoxyquinoline]
261 to 263.5 °C | Cn1cc([C@H]2CC[C@@H](N3CCN(c4cccc5cccnc45)CC3)CC2)c2cc(F)ccc21 (as salt: HCl) (hydrate or solvate) [Example 28, 8-{4-(1,4-cis)-4-[4-(5-Fluoro-1-methyl-1H-indol-3-yl)-cyclohexyl]-piperazin-1-yl}-quinoline]
305 °C (dec.) | c1cc(N2CCN([C@H]3CC[C@H](c4c[nH]c5ccccc54)CC3)CC2)c2cc[nH]c2c1 (as salt: HCl) [Example 1b, 3-[trans-4-[4-(1H-Indol-4-yl)-1-piperazinyl]cyclohexyl]-1H-indole]
230 to 233 °C | COc1cc2cccnc2c(N2CCN([C@H]3CC[C@@H](c4cn(C)c5ccc(C#N)cc54)CC3)CC2)n1 (as salt: salt) [Example 66b, (cis)-3-{4-[4-(6-Methoxy[1,7]naphthyridin-8-yl)piperazin-1-yl]cyclohexyl}-1-methyl-1H-indole-5-carbonitrile]
143 to 147 °C | COc1cc(N2CCN([C@H]3CC[C@@H](c4c[nH]c5ccc(C(F)(F)F)cc54)CC3)CC2)c2ncccc2c1 [Example 82, 6-Methoxy-8-(4-{(cis)-4-[5-(trifluoromethyl)-1H-indol-3-yl]cyclohexyl}-1-piperazinyl)quinoline]
194 to 196 °C | COc1ccc2[nH]cc([C@H]3CC[C@H](N4CCN(c5cccc6[nH]ccc56)CC4)CC3)c2c1 (as salt: HCl) (hydrate or solvate) [Example 8b, 5-Methoxy-3-[trans-4-[4-(1H-indol-4-yl)-1-piperazinyl]cyclohexyl]-1H-indole]
231 °C | COc1cc(N2CCN([C@H]3CC[C@@H](c4cn(C)c5ccc(C#N)cc54)CC3)CC2)c2ncccc2c1Cl [Example 52e, (cis)-3-{4-[4-(5-Chloro-6-methoxyquinolin-8-yl)piperazin-1-yl]cyclohexyl}-1-methyl-1H-indole-5-carbonitrile]
275 °C | Cn1cc([C@H]2CC[C@H](N3CCN(c4cc(C(=O)O)cc5cccnc45)CC3)CC2)c2cc(C#N)ccc21 [Example 74, 8-[4-[(trans)-4-(5-Cyano-1-methyl-1H-indole-3-yl)cyclohexyl]-1-piperazinyl]-6-quinolinecarboxylic Acid]
190 to 191.5 °C | COc1cc(N2CCN([C@H]3CC[C@@H](c4cn(C)c5ccc(C#N)cc54)CC3)CC2)c2ncc(C)cc2c1 [Example 51b, (cis)-3-{4-[4-(6-Methoxy-3-methylquinolin-8-yl)piperazin-1-yl]cyclohexyl}-1-methyl-1H-indole-5-carbonitrile]
163 to 165 °C | CN(C)C(=O)c1cc(N2CCN([C@H]3CC[C@@H](c4cn(C)c5ccc(C#N)cc54)CC3)CC2)c2ncccc2c1 (as salt: oxalate) [Example 77a, 8-[4-[(cis)-4-(5-Cyano-1-methyl-1H-indol-3-yl)cyclohexyl]-1-piperazinyl]-N,N-dimethyl-6-quinolincarboxamide]
153 to 155 °C | COC(=O)c1cc(N2CCN([C@H]3CC[C@@H](c4cn(C)c5ccc(C#N)cc54)CC3)CC2)c2ncccc2c1 (as salt: oxalate) [Example 75, Methyl 8-[4-[(cis)-4-(5-cyano-1-methyl-1H-indol-3-yl)cyclohexyl]-1-piperazinyl]-6-quinolinecarboxylate]
250 °C | COc1ccccc1N1CCN(C2CC=C(c3c[nH]c4ccc(F)cc34)CC2)CC1 (stereo not shown) (as salt: HCl) [Example 35, 5-Fluoro-3-{4-[4-(2-methoxy-phenyl)-piperazin-1-yl]cyclohex-1-enyl}-1H-indole]
286 to 288 °C | Cn1cc([C@H]2CC[C@H](N3CCN(c4cccc5[nH]ccc45)CC3)CC2)c2cc(C#N)ccc21 (as salt: HCl) (hydrate or solvate) [Example 12b, 3-{(1,4-trans)-4-[4-(1H-indol-4-yl)-piperazin-1-yl]-cyclohexyl}-1-methyl-1H-indole-5-carbonitrile]

Compound | melting point
Fc1cc2c(c(N3CCN([C@H]4CC[C@@H](c5c[nH]c6ccc(F)cc65)CC4)CC3)c1)OCC2 (as salt: HCl) (hydrate or solvate) [Example 32a, 5-Fluoro-3-{(1,4-cis)-4-[4-(5-fluoro-2,3-dihydro-benzofuran-7-yl)-piperazin-1-yl]-cyclohexyl}-1H-indole] | 196 to 198 °C
Fc1cc2c(c(N3CCN([C@H]4CC[C@H](c5c[nH]c6ccc(F)cc65)CC4)CC3)c1)OCC2 (as salt: HCl) (hydrate or solvate) [Example 32b, 5-Fluoro-3-{(1,4-trans)-4-[4-(5-fluoro-2,3-dihydro-benzofuran-7-yl)-piperazin-1-yl]-cyclohexyl}-1H-indole] | 303 to 305 °C
N#Cc1ccc2[nH]cc([C@H]3CC[C@@H](N4CCN(c5cccc6c5OCCO6)CC4)CC3)c2c1 (as salt: HCl) [Example 26a, 3-{(1,4-cis)-4-[4-(2,3-Dihydro-benzo[1,4]dioxin-5-yl)-piperazin-1-yl]-cyclohexyl}-1H-indole-5-carbonitrile] | 300 °C
COc1ccc2[nH]cc([C@H]3CC[C@H](N4CCN(c5ccccc5OC)CC4)CC3)c2c1 (as salt: HCl) [Example 20b, 5-Methoxy-3-{(1,4-trans)-4-[4-(2-methoxy-phenyl)-piperazin-1-yl]-cyclohexyl}-1H-indole] | 195 to 197 °C
N#Cc1ccc2[nH]cc([C@H]3CC[C@@H](N4CCN(c5cccc6ccoc56)CC4)CC3)c2c1 (as salt: HCl) (hydrate or solvate) [Example 34a] | 295 to 296 °C
Fc1cccc2[nH]cc([C@H]3CC[C@@H](N4CCN(c5cccc6c5OCCO6)CC4)CC3)c12 (as salt: HCl) [Example 23a, 3-{(1,4-cis)-4-[4-(2,3-Dihydro-benzo[1,4]dioxin-5-yl)-piperazin-1-yl]-cyclohexyl}-4-fluoro-1H-indole] | 215 to 220 °C
CCn1cc([C@H]2CC[C@H](N3CCN(c4cccc5[nH]ccc45)CC3)CC2)c2cc(C#N)ccc21 (as salt: HCl) [Example 13b, 1-Ethyl-3-{(1,4-trans)-4-[4-(1H-indol-4-yl)-piperazin-1-yl]-cyclohexyl}-1H-indole-5-carbonitrile] | 250 °C (dec.)
Cn1cc([C@H]2CC[C@@H](N3CCN(c4cc(F)cc5c4OCC5)CC3)CC2)c2cc(C#N)ccc21 (as salt: HCl) [Example 33c, 3-{(1,4-cis)-4-[4-(5-Fluoro-2,3-dihydro-benzofuran-7-yl)-piperazin-1-yl]-cyclohexyl}-1-methyl-1H-indole-5-carbonitrile] | 282 to 284 °C
Fc1ccc2c(c1)[nH]cc2[C@H]1CC[C@@H](N2CCN(c3cccc4c3OCCO4)CC2)CC1 (as salt: HCl) [Example 25a, 3-{(1,4-cis)-4-[4-(2,3-Dihydro-benzo[1,4]dioxin-5-yl)-piperazin-1-yl]-cyclohexyl}-6-fluoro-1H-indole] | 228 to 230 °C
c1cc(N2CCN([C@H]3CC[C@@H](c4c[nH]c5ncccc54)CC3)CC2)c2cc[nH]c2c1 (as salt: HCl) [Example 10a, 3-{(1,4-cis)-4-[4-(1H-Indole-4-yl)-piperazin-1-yl]-cyclohexyl}-1H-pyrrolo[2,3-b]pyridine] | > 250 °C (dec.)
CCCn1cc([C@H]2CC[C@@H](N3CCN(c4cccc5[nH]ccc45)CC3)CC2)c2cc(C#N)ccc21 (as salt: HCl) (hydrate or solvate) [Example 14a, 3-{(1,4-cis)-4-[4-(1H-Indol-4-yl)-piperazin-1-yl]-cyclohexyl}-1-propyl-1H-indole-5-carbonitrile] | 200 to 206 °C
Fc1ccc2[nH]cc([C@H]3CC[C@@H](N4CCN(c5cccc6[nH]ccc56)CC4)CC3)c2c1 (as salt: HCl) [Example 3a, 5-Fluoro-3-[cis-4-[4-(1H-indol-4-yl)-1-piperazinyl]cyclohexyl]-1H-indole] | 215 to 217 °C
c1cc(N2CCN([C@H]3CC[C@H](c4c[nH]c5ncccc54)CC3)CC2)c2cc[nH]c2c1 (as salt: HCl) [Example 10b, 3-{(1,4-trans)-4-[4-(1H-Indole-4-yl)-piperazin-1-yl]-cyclohexyl}-1H-pyrrolo[2,3-b]pyridine] | > 250 °C (dec.)
N#Cc1ccc2[nH]cc([C@H]3CC[C@@H](N4CCN(c5cc(F)cc6c5OCC6)CC4)CC3)c2c1 (as salt: HCl) (hydrate or solvate) [Example 33a, 3-{(1,4-cis)-4-[4-(5-Fluoro-2,3-dihydro-benzofuran-7-yl)-piperazin-1-yl]-cyclohexyl}-1H-indole-5-carbonitrile] | 298 to 301 °C
CCn1cc([C@H]2CC[C@@H](N3CCN(c4cccc5[nH]ccc45)CC3)CC2)c2cc(C#N)ccc21 (as salt: HCl) (hydrate or solvate) [Example 13a, 1-Ethyl-3-{(1,4-cis)-4-[4-(1H-indol-4-yl)-piperazin-1-yl]-cyclohexyl}-1H-indole-5-carbonitrile] | 245 °C
